Measured values as given in US20170143605A1, “Compositions Comprising Osteopontin Derivatives for the Inhibition of Hair Growth” (FOLLICUM AB, priority 2014, published 2017).

Experiments:
[1] = tested on: human male scalp skin grafted onto SCID mice; experiment: Hair growth of human male scalp skin grafted onto SCID mice; format: in vivo; conditions: human scalp grafts on SCID/beige mice; FOL-005 300 nM per graft intradermally twice a week; Minoxidil 5% topically twice a day; three months
Source text: The effect of FOL-005 on hair growth of human male scalp skin grafted onto SCID mice was studied.
The aim of the study was to investigate the effect of FOL-005 on hair growth of human male scalp skin with tendency to androgenetic alopecia. In order to address this issue, fort-two female SCID/beige mice, six weeks of age, were involved in the study. Punch grafts, 3 mm^2, obtained from scalp skin of human volunteers with tendency to develop common alopecia, were transplanted onto SCID/beige mice (three grafts per mouse).
One week following transplantation, the mice were randomly divided into four treated groups as follows: • 1. Vehicle (10 mice) was injected intradermally twice a week and served as a negative control. • 2. Minoxidil (5%) (11 mice) was applied topically twice a day and served as appositive control. • 3. FOL-005 (300 nM per graft) (11 mice) was injected intradermally twice a week. • 4. Minoxidil 5%+FOL-005/Minoxidil (5%) (11 mice) was applied topically twice a day. FOL-005 (300 nM per graft) was injected intradermally twice a week. For the first 4 weeks the animals were treated with minoxidil only (in order to initiate hair growth) and then for the remaining period (2 months) FOL-005 treatment was added as injections, while minoxidil treatment was maintained as a topical application.
The number of hairs/graft was counted twice a week by two independent observers. […]

[2] = tested on: human HFs in organ-cultured full-thickness human scalp skin fragments; experiment: Masson Fontana HF pigmentation in organ-cultured human scalp skin fragments; format: cell-based; conditions: at the doses tested; pooled data from 6 patients
Protocol: FIG. 15). Masson Fontana staining. […] Anagen & Catagen Hair Follices analysed. Pooled data from 6 patients. Mean+/−SEM, n=41-51 HFs evaluated, unpaired Student's t-test, ns
FIG. 17). Masson Fontana staining. […] Anagen HFs analysed. Pooled data from 6 patients. Mean+/−SEM, n=13-22 HFs evaluated, unpaired Student's t-test, ns
(§1) The following experiments were performed using human HFs in organ-cultured full-thickness human scalp skin fragments (4 mm, 6 female patients, 42-65 yrs).

intact human scalp skin [3] = experiment: Ki67/TUNEL double immunofluorescence in intact human scalp skin; format: cell-based; conditions: 60 nM; 3 days after treatment
Protocol: FIG. 7). Effect of FOL-005 on proliferation of Ki67 positive cells in intact human scalp skin. The concentration of FOL-005 was 60 nM, Mean+/−SEM, n=6-17 photos/punch was evaluated. “D3”=3 days after treatment.
To evaluate apoptotic and proliferating cells, double immunofluorescence was applied. Terminal dUTP nicked label-ling (ApopTag®Fluorescein in situ Apoptosis Detection Kit; Chemicon, Tenecula, Calif., USA) was used as a marker for apoptosis, and Ki67 immunoreactivity (DakoCytomation, Glostrup, Denmark) as indicator of cell proliferation, as previously described (Foitzik et. al., 2006).
Masson Fontana staining and immunohistochemistry was performed as described above.
The proliferation of Ki67 positive cells and apoptosis therein was determined as described in Whiting et al., 1999, J Investig Dermatol Symp Proc 4:282-284 (the relevant disclosures of which are incorporated by reference).
Cells were exposed to exemplary polypeptide FOL-005 at a dose of 60 nM.

[4] = tested on: isolated human hair follicles; experiment: Masson Fontana melanin pigmentation analysis in cultured isolated human hair follicles; format: cell-based; conditions: 60 nM
Protocol: FIG. 3). Effect of FOL-005 on melatonin content in cultured isolated human hair follicles. The analysis was performed using Masson Fontana histochemistry and morphometric evaluation of each tissue section. Results presented as mean+/−SEM, n=26-47 hair follicles evaluated in each group. One-way ANOVA and Bonferroni's post-hoc test, *p<0.05
Masson Fontana staining: Cryosections were air dried and fixed in ethanol-acetic acid. The sections were washed in tris-buffered saline (TBS) and distilled water several times. Cryosections were treated with ammoniacal silver solution (Fluka, Seelze, Germany) for 40 min at 56° C. in the dark. After washing in distilled water, the sections were treated with 5% aqueous sodium thiosulphate (Merck, Darmstadt, Germany) for 1 min. Next, the sections were washed in running tap water for 3 min and were counter-stained in 0.5% aqueous neutral red (Sigma). After washing in distilled water, sections were dehydrated and mounted in Eukitt (O. Kindler, Freiburg, Germany).

[5] = tested on: human HFs in organ-cultured full-thickness human scalp skin fragments; experiment: Ki67/TUNEL proliferation/apoptosis in organ-cultured human scalp skin fragments; format: cell-based; conditions: 15 nM; anagen and catagen HFs analysed
Protocol: FIG. 20). Ki67/TUNEL. […] Anagen & Catagen HFs analysed. Pooled data from 6 patients. Mean+/−SEM, n=48-59 HFs evaluated, Mann-Whitney test, *p<0.02. To reduce data distortion by outliers, Grubb's test was performed and the outlier value was eliminated from analysis.
as §1
Mean+/−SEM, n=48-59 HFs evaluated, Mann-Whitney test, *p<0.02. To reduce data distortion by outliers, Grubb's test was performed and the outlier value was eliminated from analysis.

[6] = tested on: human HFs in organ-cultured full-thickness human scalp skin fragments; experiment: Hair cycle staging in organ-cultured human scalp skin fragments; format: cell-based; conditions: pooled data from six patients
Protocol: FIG. 13). Hair Cycle staging. Treatment of HFs with FOL-005 consistently induces anagen HFs within human scalp skin to enter catagen prematurely in all six patients tested (in each vertical bar, the top region corresponds to mid-catagen, the middle region to early catagen and the bottom region to anagen). Pooled data from 6 patients.
as §1

[7] = tested on: human HFs in organ-cultured full-thickness human scalp skin fragments; experiment: K15 staining (indirect immunofluorescence); format: cell-based
Protocol: FIG. 25). […] Preservation of HF stem cell pool and thus regenerative potential by FOL-005.
as §1
K15 staining was performed using HS14-087 (indirect immunoflourescence, mouse anti-human CK15 Ab from Chemikon).

[8] = tested on: human HFs in organ-cultured full-thickness human scalp skin fragments; experiment: Hair follicle morphology (PAS staining); format: cell-based
Protocol: as §1

[9] = tested on: human HFs in organ-cultured full-thickness human scalp skin fragments; experiment: MHCII staining (indirect immunofluorescence); format: cell-based
Protocol: FIG. 23). MHCII staining HS 14-061 (indirect immunofluorescence. Mouse anti human Ab HLA-DP-DQ-DR from DAKO). […] These MHCII+ cells are most likely macrophages.
as §1

intact human scalp skin [10] = experiment: Full-thickness human scalp skin organ culture: hair cycle staging; format: cell-based
Protocol: Full-thickness human scalp skin organ culture was performed for six days under serum-free conditions as described in (Lu et al., 2007, the disclosures of which are incorporated herein by reference).
In brief, scalp skin of female patients was obtained from routine face-lift surgery after informed consent. Human scalp skin was washed in William's E medium (Biochrom, Cambridge, UK) supplemented with 100 IU/ml penicillin G (Sigma, St Louis, Mo., USA), 10 μg/ml streptomycin (Sigma), 0.25 μg/ml amphotericin B (Gibco, Karlsruhe, Germany) for 5 min. The out-growing hair shafts were shaved off to the level of the epidermis; 2 mm biopsies of intact scalp skin were then punched out (parallel to the direction of hair growth, i.e. at an oblique angle), using an Acu-puncher (STIEFEL, Offenbach am Main, Germany).
The punches of human scalp tissue were carefully placed into William's E medium [supplemented with 100 IU/ml penicillin/10 μg/ml streptomycin, 10 μg/ml of insulin (Sigma), 10 ng/ml of hydrocortisone (Sigma) and 2 mmol/I of I-glutamine (Invitrogen, Paisley, UK)]. The skin fragments were left to float in the medium, with the epidermis up at air/liquid interface and the dermis/subcutis down. The cultures were maintained at 37° C. in a gassed incubator with 95% air and 5% CO2. The culture medium was changed every other day.
Immediately after commencement of culturing, the skin fragments were exposed to the exemplary polypeptide FOL-005 (at a dose of 15 nM to 3 μM), which lasted for the duration of culturing.
(§2) At different time points, skin specimens were embedded in O.C.T.™ Tissue-TEK (Sakura, Zoeterwoude, the Netherlands), frozen in liquid nitrogen, and 6 μm cryosections were cut. The sections were then post-fixed in acetone, air-dried and processed for haematoxylin and eosin (H&E; Sigma), Giemsa or Masson-Fontana histochemistry. Individual hair follicles were analysed with respect to their stage of cycling as described (Whiting et al. 1999), while hair follicle melanization was assessed by standard silver nitrate histochemistry (Masson-Fontana stain). Quantification of well-defined reference areas within the proximal hair matrix was performed using the Image J software (NIH).

[11] = tested on: human HFs in organ-cultured full-thickness human scalp skin fragments; experiment: Toluidine blue staining for perifollicular mast cells; format: cell-based
Protocol: FIG. 22). Toluidine blue staining for detecting Mast cells.
as §1

[12] = tested on: isolated human hair follicles; experiment: Organ culture of isolated human hair follicles: hair cycle staging (anagen to catagen); format: cell-based
Source text: Anagen VI hair follicles (see Kloepper et al., 2010, the disclosures of which are incorporated herein by reference) were micro dissected from normal human scalp skin obtained with informed patient consent from three healthy adult females undergoing routine face-lift cosmetic surgery.
Isolated hair follicles were organ-cultured for 6-10 days in insulin- and hydrocortisone-supplemented William's E medium according to Philpott et al. (see Philpott et al., 1990; Bodó et al., 2009; Gáspár et al., 2010, the disclosures of which are incorporated herein by reference).
Treatment with the exemplary polypeptide FOL-005 was initiated immediately upon culturing the hair follicles, and lasted 7 to 10 days.
At the end of organ-culture, hair follicles were embedded and processed for longitudinal cryosections (Bodó et al., 2009; Gáspár et al., 2010).

[13] = tested on: human HFs in organ-cultured full-thickness human scalp skin fragments; experiment: Emigration of dermal papilla cells in organ-cultured human scalp skin fragments; format: cell-based; conditions: anagen HFs only; pooled data from six patients
Protocol: FIG. 11). Effect of FOL-005 on emigration of Dermal Papilla (DP) cells. Only Anagen Hair follicles (HFs) analysed. Results based on pooled data from 6 patients. No significant change in the number of emigrating DP cells in HFs treated with FOL-005. Mean+/−SEM, n=18-22 HFs evaluated, Mann-Whitney test, ns
as §1

[14] = tested on: human HFs in organ-cultured full-thickness human scalp skin fragments; experiment: CD31 staining (indirect immunofluorescence); format: cell-based
Protocol: FIG. 24). CD31 staining HS14-061 (indirect immunoflourescence, mouse anti-human CD31 Ab from DAKO).
as §1

intact human scalp skin [15] = experiment: Masson-Fontana melanin pigmentation in intact human scalp skin; format: cell-based; conditions: injection or addition to the culture medium
Protocol: FIG. 8). Effect of FOL-005 on melatonin content in intact human scalp skin. The analysis was performed using Masson Fontana histochemistry and morphometric evaluation of each tissue section. Results presented as mean+/−SEM. One-way ANOVA and Bonferroni's post-hoc test, **p<0.01, *p<0.05. “D3”=3 days after treatment.
as §2
Pigmentation changes in isolated follicles treated with exemplary polypeptide FOL-005 were assessed by Masson-Fontana histochemistry (see Whiting et al., 1999, J Investig Dermatol Symp Proc 4:282-284, the relevant disclosures of which are incorporated by reference).

`Nc1cc(N2CCCCC2)nc(N)[n+]1[O-]` [Minoxidil, reference compound] gave a number of hairs/graft [1] of 8.1±0.1 hairs/graft.
“VDTYDGDISVVYGLR (FOL-005, Peptide with similarity to sub-region of osteopontin) [exemplary polypeptide of the invention, osteopontin-derived 15-mer]” was tested, and the HF pigmentation [2] was “No significant changes”, the “apoptosis (proportion of TUNEL positive cells)” value (intact human scalp skin [3]) was “increased level of apoptosis” and the “proliferation (proportion of Ki67 positive cells)” value (intact human scalp skin [3]) was “strong tendency towards reduced proliferation”. For the same compound, the melanin pigmentation [4] was “significant reduction in pigmentation”, the “number of apoptotic cells in HFs” value [5] was “significant increase” and the “number of proliferative cells in HFs” value [5] was “No significant changes”. The “HF cycling (anagen to catagen)” value [6] was “consistently induced anagen HFs within human scalp skin to enter catagen prematurely in all six patients tested”, the “number of K15+ cells” value [7] was “No marked differences” and the “human HF epithelial stem cells” value ([7]; K15 staining) was “not affected negatively”. For the same compound, the “morphology of the BM (basal membrane) in HFs” value [8] was “No observable difference”, the “number of immunohistologically-detectable perifollicular MHC class II+ cells” value [9] was “No marked difference” and the “hair follicles in early catagen” value (intact human scalp skin [10]; addition to the culture medium) was “Almost all hair follicles are observed in early catagen”. For the same compound, the “hair follicle regression (analysis of cryosections)” value (intact human scalp skin [10]; human skin pieces (Example B)) was “promotes hair follicle regression”, the catagen induction (intact human scalp skin [10]; injection into the scalp skin tissue) was “Catagen was also induced” and the “transition from anagen to catagen phase” value (intact human scalp skin [10]; intact human scalp skin, 15 nM to 3 μM, six days culture) was “induced a rapid transition from anagen to catagen phase”. For the same compound, the “number of histochemically-detectable perifollicular mast cells” value [11] was “No marked difference”, the “hair follicle regression (analysis of cryosections)” value [12] was “promotes hair follicle regression” and the “transition from anagen to catagen phase” value ([12]; 15 nM, 60 nM and 300 nM, treatment 7 to 10 days) was “induced a dose-dependent transition from anagen to catagen phase”. For the same compound, the “number of emigrating dermal papilla (DP) cells in HFs” value [13] was “No significant effect”, the “number of CD31+ cells (endothelial cells)” value [14] was “No marked differences” and the number of hairs/graft [1] was 2.1±0.4 hairs/graft. For the same compound, the melanin pigmentation (intact human scalp skin [15]) was “significant reduction in pigmentation”.
